# Assay results: PMC9229843, “Cancer-Related Somatic Mutations in Transmembrane Helices Alter Adenosine A1 Receptor Pharmacology” (Molecules, 2022)
# Numbering of substitutions follows the chain as printed.
# Assays:
# A1AR P86F^3.31 = test system: A1AR P86F^3.31; set-up: method as in PMID 9920910; conditions: result in words; cited from earlier work
# hA1AR S246T^6.47 = biological target: T1, hA1AR S246T^6.47 (Homo sapiens, UniProt P30542, S246T); conditions: ratio over basal activity of wild type hA1AR; yeast; 7 mM 3-AT
# T1 sequence (P30542 1-326 S246T): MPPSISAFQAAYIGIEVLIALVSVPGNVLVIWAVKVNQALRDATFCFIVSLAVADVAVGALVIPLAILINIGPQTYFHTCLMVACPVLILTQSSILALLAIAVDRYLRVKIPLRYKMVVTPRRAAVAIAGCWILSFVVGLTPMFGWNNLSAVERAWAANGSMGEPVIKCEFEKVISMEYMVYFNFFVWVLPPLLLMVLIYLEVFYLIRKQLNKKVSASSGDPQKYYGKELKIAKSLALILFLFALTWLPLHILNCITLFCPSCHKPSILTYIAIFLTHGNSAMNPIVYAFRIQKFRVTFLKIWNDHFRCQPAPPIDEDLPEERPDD
# Experimental: (§1) The plasmids, pDT-PGK_hA1AR, containing either wild type or mutated hA1AR were transformed into a MMY24 S. cerevisiae strain following the lithium acetate procedure.
# In order to characterize the mutant hA1ARs, liquid growth assays in 96-well plates were performed to obtain concentration–growth curves as previously described. […] The overnight cultures were then diluted to 40,000 cells/mL (OD600 ≈ 0.02) in a selective medium without uracil, leucine, and histidine (YNB-ULH). For the determination of constitutive activity, 50 μL of yeast cells and 150 μL of YNB-ULH medium containing different concentrations of 3-AT and 0.8 IU/mL ADA were then added to each well. […] After incubation at 30 °C for 35 h in a Genios plate reader (TECAN, Zürich, Switzerland) with shaking for 1 min at 300 rpm every 10 min, the optical density was measured at a wavelength of 595 nm, which represented the level of yeast cell growth.
# All experimental data were analyzed by GraphPad Prism 7.0 or 8.0 (GraphPad Software Inc., San Diego, CA, USA). Data from yeast liquid growth and [^35S]GTPγS binding assays were analyzed by non-linear regression using “log (agonist) vs. response (three parameters)” or “log (inhibitor) vs. response (three parameters)” to obtain potency (EC50), inhibitory potency (IC50), and efficacy (Emax or Imax) values. […]
# hA1AR D55G^2.50 = biological target: T2, hA1AR D55G^2.50 (Homo sapiens, UniProt P30542, D55G); experiment: yeast liquid growth assay; assay type: cell-based; conditions: result in words
# T2 construct: expressed in transfected cells; host or cells: S. cerevisiae MMY24
# T2 sequence (P30542 1-326 D55G): T1 sequence (P30542 1-326 S246T) with D55G, T246S
# Experimental: as §1
# (§2) In order to characterize the mutant hA1ARs, liquid growth assays in 96-well plates were performed to obtain concentration–growth curves as previously described. […] The overnight cultures were then diluted to 40,000 cells/mL (OD600 ≈ 0.02) in a selective medium without uracil, leucine, and histidine (YNB-ULH). For the determination of constitutive activity, 50 μL of yeast cells and 150 μL of YNB-ULH medium containing different concentrations of 3-AT and 0.8 IU/mL ADA were then added to each well. To obtain concentration–growth curves, 2 μL of various concentrations of ligands, 50 μL of yeast cells, and 150 μL of YNB-ULH medium containing 7 mM 3-AT and 0.8 IU/mL ADA were then added to each well. After incubation at 30 °C for 35 h in a Genios plate reader (TECAN, Zürich, Switzerland) with shaking for 1 min at 300 rpm every 10 min, the optical density was measured at a wavelength of 595 nm, which represented the level of yeast cell growth.
# (§3) All experimental data were analyzed by GraphPad Prism 7.0 or 8.0 (GraphPad Software Inc., San Diego, CA, USA). Data from yeast liquid growth and [^35S]GTPγS binding assays were analyzed by non-linear regression using “log (agonist) vs. response (three parameters)” or “log (inhibitor) vs. response (three parameters)” to obtain potency (EC50), inhibitory potency (IC50), and efficacy (Emax or Imax) values. The radioligand displacement curves were obtained from a statistically preferred one-site or two-site binding model. pKi values were calculated from pIC50 values using the Cheng–Prusoff equation, where KD values were obtained from the homologous competition assays from this study and calculated by non-linear regression using “one site–homologous” [62].
# hA1AR R122Q^4.40 = biological target: T3, hA1AR R122Q^4.40 (Homo sapiens, UniProt P30542, R122Q); experiment: yeast liquid growth assay; assay type: cell-based; conditions: ratio over basal activity of wild type hA1AR, 7 mM 3-AT
# T3 construct: expressed in transfected cells; host or cells: S. cerevisiae MMY24
# T3 sequence (P30542 1-326 R122Q): T1 sequence (P30542 1-326 S246T) with R122Q, T246S
# Experimental: as §1, §2, §3
# hA1AR G279S^7.44 = biological target: T4, hA1AR G279S^7.44 (Homo sapiens, UniProt P30542, G279S); experiment: yeast liquid growth assay; assay type: cell-based; conditions: ratio over basal activity of wild type hA1AR, 7 mM 3-AT
# T4 sequence (P30542 1-326 G279S): T1 sequence (P30542 1-326 S246T) with T246S, G279S
# Experimental: as §1, §2, §3
# hA1AR W188C^5.46 = biological target: T5, hA1AR W188C^5.46 (Homo sapiens, UniProt P30542, W188C); experiment: yeast liquid growth assay; assay type: cell-based
# T5 sequence (P30542 1-326 W188C): T1 sequence (P30542 1-326 S246T) with W188C, T246S
# Experimental: as §1, §2, §3
structure (smiles),measurement,setting,value
"OC[C@H]1O[C@@H](n2cnc3c(NC4CCCC4)ncnc32)[C@H](O)[C@@H]1O [CPA, N^6-cyclopentyladenosine]",CPA binding,A1AR P86F^3.31,abolished
same,Emax,hA1AR S246T^6.47,4.81 ± 0.26
same,agonist-induced receptor activation,hA1AR D55G^2.50,could not be activated
same,Emax,hA1AR R122Q^4.40,4.67 ± 0.22
same,Emax,hA1AR G279S^7.44,4.96 ± 0.38
same,decrease in potency versus wild type hA1AR,hA1AR W188C^5.46,10 fold
same,Emax,"hA1AR W188C^5.46; ratio over basal activity of wild type hA1AR, 7 mM 3-AT",4.35 ± 0.10
